Assay results: PubChem BioAssay (NCI)
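Step 1: Grow cells in 96-well plates. Step 2: Expose to compound for 48 hours at 5 concentrations. Step 3: Interpolate endpoints linearly; if unreached, use highest concentration. GI50 is the concentration that inhibits growth by half. Definition used: TGI = concentration required for complete inhibition of growth.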

Columns and labels:
Experiment in all cases: inhibition of tumour cell growth, NCI panel, 48 h
TK-10 renal = tested on: TK-10 renal
SK-OV-3 ovarian = tested on: SK-OV-3 ovarian
BT-549 breast = tested on: BT-549 breast
T-47D breast = tested on: T-47D breast
MOLT-4 leukemia = tested on: MOLT-4 leukemia
LOX IMVI melanoma = tested on: LOX IMVI melanoma
HCT-116 colon = tested on: HCT-116 colon
HL-60(TB) leukemia = tested on: HL-60(TB) leukemia
DU-145 prostate = tested on: DU-145 prostate
MCF7 breast = tested on: MCF7 breast
SN12C renal = tested on: SN12C renal
SF-268 CNS = tested on: SF-268 CNS
NCI-H226 lung = tested on: NCI-H226 lung
KM12 colon = tested on: KM12 colon
U251 CNS = tested on: U251 CNS
CAKI-1 renal = tested on: CAKI-1 renal
HT29 colon = tested on: HT29 colon
NCI-H460 lung = tested on: NCI-H460 lung
MALME-3M melanoma = tested on: MALME-3M melanoma
OVCAR-4 ovarian = tested on: OVCAR-4 ovarian
SK-MEL-5 melanoma = tested on: SK-MEL-5 melanoma
RPMI-8226 leukemia = tested on: RPMI-8226 leukemia
UACC-257 melanoma = tested on: UACC-257 melanoma
SF-539 CNS = tested on: SF-539 CNS
SW-620 colon = tested on: SW-620 colon
HCC-2998 colon = tested on: HCC-2998 colon
SR leukemia = tested on: SR leukemia
OVCAR-3 ovarian = tested on: OVCAR-3 ovarian
HS 578T breast = tested on: HS 578T breast
PC-3 prostate = tested on: PC-3 prostate
A549 NSCLC = tested on: A549 NSCLC
M14 melanoma = tested on: M14 melanoma
HCT-15 colon = tested on: HCT-15 colon
NCI-H522 lung = tested on: NCI-H522 lung
NCI-H23 lung = tested on: NCI-H23 lung
MDA-MB-435 = tested on: MDA-MB-435
HOP-92 NSCLC = tested on: HOP-92 NSCLC
ACHN renal = tested on: ACHN renal
K-562 leukemia = tested on: K-562 leukemia
RXF 393 renal = tested on: RXF 393 renal
SK-MEL-28 melanoma = tested on: SK-MEL-28 melanoma
A498 renal = tested on: A498 renal
NCI/ADR-RES ovarian = tested on: NCI/ADR-RES ovarian
HOP-62 NSCLC = tested on: HOP-62 NSCLC
COLO 205 colon = tested on: COLO 205 colon
IGROV1 ovarian = tested on: IGROV1 ovarian
SF-295 CNS = tested on: SF-295 CNS
MDA-MB-468 breast = tested on: MDA-MB-468 breast
SNB-19 CNS = tested on: SNB-19 CNS
OVCAR-8 ovarian = tested on: OVCAR-8 ovarian
OVCAR-5 ovarian = tested on: OVCAR-5 ovarian
786-0 renal = tested on: 786-0 renal
UACC-62 melanoma = tested on: UACC-62 melanoma

CC[C@]12C=CCN3CC[C@@]4(c5ccc(OC)cc5N(C)[C@H]4[C@@](O)(C(=O)OC)[C@@H]1OC(=O)CCCC[P+](c1ccc(OC)cc1)(c1ccc(OC)cc1)c1ccc(OC)cc1)[C@@H]32
GI50 (TK-10 renal): 1670 nM
TGI (TK-10 renal): 3800 nM
GI50 (SK-OV-3 ovarian): 1400 nM
TGI (SK-OV-3 ovarian): 4520 nM
GI50 (BT-549 breast): 1250 nM
TGI (BT-549 breast): 2600 nM
GI50 (T-47D breast): 383 nM
TGI (T-47D breast): 2830 nM
GI50 (MOLT-4 leukemia): 1180 nM
TGI (MOLT-4 leukemia): 3210 nM
GI50 (LOX IMVI melanoma): 1110 nM
TGI (LOX IMVI melanoma): 2350 nM
GI50 (HCT-116 colon): 1300 nM
TGI (HCT-116 colon): 7760 nM
GI50 (HL-60(TB) leukemia): 234 nM
TGI (HL-60(TB) leukemia): 674 nM
GI50 (DU-145 prostate): 1600 nM
TGI (DU-145 prostate): 12300 nM
GI50 (MCF7 breast): 105 nM
TGI (MCF7 breast): 225 nM
GI50 (SN12C renal): 1180 nM
TGI (SN12C renal): 3070 nM
GI50 (SF-268 CNS): 1470 nM
TGI (SF-268 CNS): 3490 nM
GI50 (NCI-H226 lung): 2030 nM
TGI (NCI-H226 lung): 7490 nM
GI50 (KM12 colon): 675 nM
TGI (KM12 colon): 1990 nM
GI50 (U251 CNS): 392 nM
TGI (U251 CNS): 1450 nM
GI50 (CAKI-1 renal): 15200 nM
TGI (CAKI-1 renal): 29800 nM
GI50 (HT29 colon): 511 nM
TGI (HT29 colon): 2020 nM
GI50 (NCI-H460 lung): 1150 nM
TGI (NCI-H460 lung): 11200 nM
GI50 (MALME-3M melanoma): 1130 nM
TGI (MALME-3M melanoma): 2410 nM
GI50 (OVCAR-4 ovarian): 1570 nM
TGI (OVCAR-4 ovarian): 11600 nM
GI50 (SK-MEL-5 melanoma): 1600 nM
TGI (SK-MEL-5 melanoma): 2950 nM
GI50 (RPMI-8226 leukemia): 299 nM
TGI (RPMI-8226 leukemia): 969 nM
GI50 (UACC-257 melanoma): 792 nM
TGI (UACC-257 melanoma): 2310 nM
GI50 (SF-539 CNS): 1520 nM
TGI (SF-539 CNS): 5440 nM
GI50 (SW-620 colon): 1060 nM
TGI (SW-620 colon): 6430 nM
GI50 (HCC-2998 colon): 617 nM
TGI (HCC-2998 colon): 1850 nM
GI50 (SR leukemia): 428 nM
TGI (SR leukemia): 1700 nM
GI50 (OVCAR-3 ovarian): 634 nM
TGI (OVCAR-3 ovarian): 2330 nM
GI50 (HS 578T breast): 1510 nM
TGI (HS 578T breast): 4990 nM
GI50 (PC-3 prostate): 562 nM
TGI (PC-3 prostate): 5900 nM
GI50 (A549 NSCLC): 1650 nM
TGI (A549 NSCLC): 11500 nM
GI50 (M14 melanoma): 1200 nM
TGI (M14 melanoma): 2740 nM
GI50 (HCT-15 colon): 8790 nM
TGI (HCT-15 colon): 22300 nM
GI50 (NCI-H522 lung): 341 nM
TGI (NCI-H522 lung): 1250 nM
GI50 (NCI-H23 lung): 1190 nM
TGI (NCI-H23 lung): 4740 nM
GI50 (MDA-MB-435): 521 nM
TGI (MDA-MB-435): 1830 nM
GI50 (HOP-92 NSCLC): 520 nM
TGI (HOP-92 NSCLC): 2640 nM
GI50 (ACHN renal): 6280 nM
TGI (ACHN renal): 19700 nM
GI50 (K-562 leukemia): 675 nM
TGI (K-562 leukemia): 2530 nM
GI50 (RXF 393 renal): 524 nM
TGI (RXF 393 renal): 2040 nM
GI50 (SK-MEL-28 melanoma): 486 nM
TGI (SK-MEL-28 melanoma): 1730 nM
GI50 (A498 renal): 2930 nM
TGI (A498 renal): 11400 nM
GI50 (NCI/ADR-RES ovarian): 20500 nM
TGI (NCI/ADR-RES ovarian): 55900 nM
GI50 (HOP-62 NSCLC): 2420 nM
TGI (HOP-62 NSCLC): 7120 nM
GI50 (COLO 205 colon): 214 nM
TGI (COLO 205 colon): 450 nM
GI50 (IGROV1 ovarian): 548 nM
TGI (IGROV1 ovarian): 1860 nM
GI50 (SF-295 CNS): 1970 nM
TGI (SF-295 CNS): 5440 nM
GI50 (MDA-MB-468 breast): 264 nM
TGI (MDA-MB-468 breast): 799 nM
GI50 (SNB-19 CNS): 484 nM
TGI (SNB-19 CNS): 1950 nM
GI50 (OVCAR-8 ovarian): 1990 nM
TGI (OVCAR-8 ovarian): 9600 nM
GI50 (OVCAR-5 ovarian): 2130 nM
TGI (OVCAR-5 ovarian): 7150 nM
GI50 (786-0 renal): 2590 nM
TGI (786-0 renal): 8040 nM
GI50 (UACC-62 melanoma): 963 nM
TGI (UACC-62 melanoma): 2200 nM
